The text below walks through data of the supplement of paper PMC10307832.

What all share (experiment): relative viability (nuclei count vs DMSO), 5 days (fraction); higher = more cells survive
Compound in the assay “GW-2580 + Foretinib”: COC1=CC=C(C=C1)COC2=C(C=C(C=C2)CC3=CN=C(N=C3N)N)OC [GW-2580] + COc1cc2c(Oc3ccc(NC(=O)C4(C(=O)Nc5ccc(F)cc5)CC4)cc3F)ccnc2cc1OCCCN1CCOCC1 [Foretinib] (partner 0.25 µM)
An outline of the steps: (§1)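 One day after seeding in 1536-well plates, lung cancer cell lines were dosed by pin tool. Dosing was either single-drug or a fixed anchor-drug dose plus five library-drug doses (not always all listed) in √10 steps. After 5 days, nuclei were stained in one fix-and-stain step and counted on 4× images, and relative viability is the nuclei count of treated wells over that of vehicle wells, given as the median of duplicate plates.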

Compound in the assay “GW-2580 + Vorinostat”: COC1=CC=C(C=C1)COC2=C(C=C(C=C2)CC3=CN=C(N=C3N)N)OC [GW-2580] + O=C(CCCCCCC(=O)Nc1ccccc1)NO [Vorinostat] (partner 1 µM)
An outline of the steps: as §1

Compound in the assay “GW-2580 + AZD7762”: COC1=CC=C(C=C1)COC2=C(C=C(C=C2)CC3=CN=C(N=C3N)N)OC [GW-2580] + NC(=O)Nc1cc(-c2cccc(F)c2)sc1C(=O)N[C@H]1CCCNC1 [AZD7762] (partner 0.2 µM)
The gist of the method:
as §1

Compound in the assay “GW-2580 + Decitabine”: COC1=CC=C(C=C1)COC2=C(C=C(C=C2)CC3=CN=C(N=C3N)N)OC [GW-2580] + Nc1ncn([C@H]2C[C@H](O)[C@@H](CO)O2)c(=O)n1 [Decitabine] (partner 2 µM)
The gist of the method: as §1

Take LXF-289: the relative viability in the assay with GW-2580 + Foretinib (first compound 0.08 µM) turned out to be 1.06; with GW-2580 + Foretinib (first compound 0.8 µM), 0.99; with GW-2580 + Foretinib (first compound 2.53 µM), 0.957; with GW-2580 + Foretinib (first compound 8 µM), 0.891; with GW-2580 + Vorinostat (first compound 0.08 µM), 0.843; in the assay with GW-2580 + Vorinostat (first compound 0.8 µM), 0.806. For the same cell line, the relative viability with GW-2580 + Vorinostat (first compound 2.53 µM) stood at 0.776; with GW-2580 + Vorinostat (first compound 8 µM) it was 0.72; with GW-2580 + AZD7762 (first compound 0.08 µM), 1.17; with GW-2580 + AZD7762 (first compound 0.8 µM), 1.2; in the assay with GW-2580 + AZD7762 (first compound 2.53 µM) it was 1.07; in the assay with GW-2580 + AZD7762 (first compound 8 µM), 1.06. For the same cell line, the relative viability was found to be 0.358 with GW-2580 + Decitabine (first compound 0.08 µM), 0.391 with GW-2580 + Decitabine (first compound 0.8 µM), 0.407 in the assay with GW-2580 + Decitabine (first compound 2.53 µM) and 0.368 in the assay with GW-2580 + Decitabine (first compound 8 µM).
Consider NCI-H23, for which the relative viability worked out at 1.23 with GW-2580 + Foretinib (first compound 0.08 µM); 1.18 in the assay with GW-2580 + Foretinib (first compound 0.8 µM); 0.887 in the assay with GW-2580 + Foretinib (first compound 2.53 µM); 0.907 with GW-2580 + Foretinib (first compound 8 µM); 0.53 with GW-2580 + Vorinostat (first compound 0.08 µM); 0.782 in the assay with GW-2580 + Vorinostat (first compound 0.8 µM). Besides, the relative viability with GW-2580 + Vorinostat (first compound 2.53 µM) stood at 0.462; in the assay with GW-2580 + Vorinostat (first compound 8 µM), 0.546; in the assay with GW-2580 + AZD7762 (first compound 0.08 µM), 0.264; with GW-2580 + AZD7762 (first compound 0.8 µM), 0.21; with GW-2580 + AZD7762 (first compound 2.53 µM), 0.243; in the assay with GW-2580 + AZD7762 (first compound 8 µM), 0.179. Moreover, the relative viability came out at 0.324 with GW-2580 + Decitabine (first compound 0.08 µM), 0.334 with GW-2580 + Decitabine (first compound 0.8 µM), 0.308 with GW-2580 + Decitabine (first compound 2.53 µM) and 0.283 with GW-2580 + Decitabine (first compound 8 µM).
Take NCI-H322M: the relative viability worked out at 1.02 in the assay with GW-2580 + Foretinib (first compound 0.08 µM); 1.06 in the assay with GW-2580 + Foretinib (first compound 0.8 µM); 0.924 in the assay with GW-2580 + Foretinib (first compound 2.53 µM); 0.979 in the assay with GW-2580 + Foretinib (first compound 8 µM); 0.843 with GW-2580 + Vorinostat (first compound 0.08 µM); 0.996 with GW-2580 + Vorinostat (first compound 0.8 µM). For the same cell line, the relative viability is 0.893 with GW-2580 + Vorinostat (first compound 2.53 µM); 0.903 with GW-2580 + Vorinostat (first compound 8 µM); 0.508 with GW-2580 + AZD7762 (first compound 0.08 µM); 0.706 in the assay with GW-2580 + AZD7762 (first compound 0.8 µM); 0.598 with GW-2580 + AZD7762 (first compound 2.53 µM); 0.531 with GW-2580 + AZD7762 (first compound 8 µM). Also, the relative viability with GW-2580 + Decitabine (first compound 0.08 µM) worked out at 0.73; with GW-2580 + Decitabine (first compound 0.8 µM) it was 0.816; with GW-2580 + Decitabine (first compound 2.53 µM), 0.611; in the assay with GW-2580 + Decitabine (first compound 8 µM) it was 0.489.
NCI-H358: the relative viability in the assay with GW-2580 + Foretinib (first compound 0.08 µM) was found to be 0.761; in the assay with GW-2580 + Foretinib (first compound 0.8 µM), 0.79; with GW-2580 + Foretinib (first compound 2.53 µM), 0.679; with GW-2580 + Foretinib (first compound 8 µM), 0.557; with GW-2580 + Vorinostat (first compound 0.08 µM), 0.754; with GW-2580 + Vorinostat (first compound 0.8 µM), 0.816. Moreover, the relative viability in the assay with GW-2580 + Vorinostat (first compound 2.53 µM) worked out at 0.631; with GW-2580 + Vorinostat (first compound 8 µM), 0.984; with GW-2580 + AZD7762 (first compound 0.08 µM), 0.588; with GW-2580 + AZD7762 (first compound 0.8 µM), 0.604; in the assay with GW-2580 + AZD7762 (first compound 2.53 µM) it was 0.516; with GW-2580 + AZD7762 (first compound 8 µM), 0.363. For the same cell line, the relative viability with GW-2580 + Decitabine (first compound 0.08 µM) is 0.208; in the assay with GW-2580 + Decitabine (first compound 0.8 µM) it was 0.206; in the assay with GW-2580 + Decitabine (first compound 2.53 µM) it was 0.201; with GW-2580 + Decitabine (first compound 8 µM) it was 0.217.
In the case of NCI-H441, the relative viability is 1.03 with GW-2580 + Foretinib (first compound 0.08 µM); 1.16 in the assay with GW-2580 + Foretinib (first compound 0.8 µM); 1.06 with GW-2580 + Foretinib (first compound 2.53 µM); 1.1 with GW-2580 + Foretinib (first compound 8 µM); 0.913 with GW-2580 + Vorinostat (first compound 0.08 µM); 0.951 in the assay with GW-2580 + Vorinostat (first compound 0.8 µM). In addition, the relative viability turned out to be 0.68 with GW-2580 + Vorinostat (first compound 2.53 µM); 0.783 with GW-2580 + Vorinostat (first compound 8 µM); 1.13 with GW-2580 + AZD7762 (first compound 0.08 µM); 1.26 with GW-2580 + AZD7762 (first compound 0.8 µM); 1.06 with GW-2580 + AZD7762 (first compound 2.53 µM); 1.08 in the assay with GW-2580 + AZD7762 (first compound 8 µM). Also, the relative viability was 0.207 in the assay with GW-2580 + Decitabine (first compound 0.08 µM), 0.198 in the assay with GW-2580 + Decitabine (first compound 0.8 µM), 0.243 with GW-2580 + Decitabine (first compound 2.53 µM) and 0.222 in the assay with GW-2580 + Decitabine (first compound 8 µM).
